Results reported in patent US20230414593A1, “EZH2 INHIBITION THERAPIES FOR THE TREATMENT OF ANDROGEN RECEPTOR MUTATED PROSTATE CANCERS” (Constellation Pharmaceuticals, Inc, priority 2020, published 2023).

Tested on: LNCaP-FGC tumor cells
Test: Tumor growth inhibition in prostate cancer LNCaP model with AR mutation H875Y
Assay type: in vivo, mouse
Details: 75 mg/kg orally once daily, LNCaP-FGC subcutaneous tumors, Cmp. 1 compared with Cmp. 2, FIG. 2
Experimental: (R)-7-chloro-2-((1r,4R)-4-(3-methoxyazetidin-1-yl)cyclohexyl)-2,4-dimethyl-N-((6-methyl-4-(methylthio)-2-oxo-1,2-dihydropyridin-3-yl)methyl)benzo[d][1,3]dioxole-5-carboxamide and R—N-((4-methoxy-6-methyl-2-oxo-1,2-dihydropyridin-3-yl)methyl)-2-methyl-1-(1-(1-(2,2,2-trifluoroethyl)piperidin-4-yl)ethyl)-1H-indole-3-carboxamide were examined in a prostate cancer LNCaP Model with AR mutation H875Y.
A fixed dose of 75 mg/kg was used for both compounds. Each mouse was inoculated subcutaneously at the right flank with LNCaP-FGC tumor cells (10×10^6) in 0.1 ml of PBS mixed with RPMI-1640:Matrigel (50:50) for tumor development. The treatments started when the average tumor volume reached approximately 158 mm^3. The test articles were administered orally once daily. The tumor size was used for the calculation of tumor growth inhibition (TGI)=[1−(T1−T0)/(C1−C0)]×100, where C1=mean tumor volume of control mice at time t, T1=mean tumor volume of treated mice at time t, C0=mean tumor volume of control mice at time 0, and T0=mean tumor volume of treated mice at time 0].

Structure (SMILES): COC1CN([C@H]2CC[C@H]([C@@]3(C)Oc4c(Cl)cc(C(=O)NCc5c(SC)cc(C)[nH]c5=O)c(C)c4O3)CC2)C1 [Cmp. 1, (R)-7-chloro-2-((1r,4R)-4-(3-methoxyazetidin-1-yl)cyclohexyl)-2,4-dimethyl-N-((6-methyl-4-(methylthio)-2-oxo-1,2-dihydropyridin-3-yl)methyl)benzo[d][1,3]dioxole-5-carboxamide]
- tumor growth inhibition (TGI), relative tumor volume % reduction: more efficacious at tumor growth inhibition
- tumor growth inhibition (TGI), relative tumor volume % reduction (listed as (R)-7-chloro-2-(1r,4R)-4-(3-methoxyazetidin-1-yl)cyclohexyl)-2,4-dimethyl-N-((6)): more efficacious
